Patent US20230348454A1, “COMPOUNDS AS MODULATORS OF BIS-PHOSPHOGLYCERATE MUTASE FOR THE TREATMENT OF SICKLE CELL DISEASE” (Genzyme Corporation, priority 2020, published 2023)
Read-outs that look alike come from different tables or passages of the source.

How the values were obtained:
[1] = target: T1, human Bisphosphoglycerate mutase (hBPGM) (Homo sapiens, UniProt P07738); assay: BPGM phosphatase assay; type: biochemical
T1 sequence (P07738 1-259): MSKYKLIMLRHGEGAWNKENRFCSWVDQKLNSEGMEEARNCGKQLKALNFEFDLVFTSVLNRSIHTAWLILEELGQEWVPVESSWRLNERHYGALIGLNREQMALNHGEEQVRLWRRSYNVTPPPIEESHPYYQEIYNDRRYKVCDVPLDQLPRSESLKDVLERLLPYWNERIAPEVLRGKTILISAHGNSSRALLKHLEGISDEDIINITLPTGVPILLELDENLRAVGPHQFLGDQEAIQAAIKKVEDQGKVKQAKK
Protocol: The following materials were used in this assay: Tris buffer (50 mM Tris, 0.01% Tween 20, pH 7.4); cyclohexylammonium salt of 2,3-BPG (stock solution of 500 mM in ultapure distilled water; human Bisphosphoglycerate mutase (hBPGM; stock solution of 110 μM in Standard Buffer); 3-Phosphoglyceric acid (3-PG; stock solution of 100 mM in ultrapure distilled water); 384-Well Polystyrene Plates (Fisherbrand™, Catalog No.: 12-566-625); BIOMOL GREEN REAGENT (Enzo life sciences, BML-AK111-0250); and 1 mM DMSO stock of exemplary compounds.
A 3-PG enzyme mix solution (final enzyme concentration 62.5 nM, 3-PG concentration at 50 µM, 14.5 uL) was added to onto a 384-well clear plate. Solutions of the test compounds were then added to the plate and the DMSO content was normalized across the plate. The plate was incubated at RT for 15 min. Next, the substrate 2,3-BPG (5 μL) was added to all the wells, and the plate was sealed and incubated for 24 hr at RT. After incubation, BIOMOL green dye (40 μL) was added to all the wells, the plate was shaken to mix, and the plate was incubated at RT for 20-30 min. Absorbance measurements were recorded at 620 nm.

hBPGM = target: T2, hBPGM (Homo sapiens, UniProt P07738); assay: BPGM synthase assay; type: biochemical; conditions: Table 6; read-out: huBPGM: synthase Enzyme IC50
T2 sequence (P07738 1-259): T1 sequence (P07738 1-259)
Procedure, shortened: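 The enzyme solution held 5 nM BPGM with 0.4 U/mL coupling GAPDH in Tris pH 7.4, 3.23 mM KH2PO4, 1 mM DTT, and compounds were pre-incubated 30 min at RT. Substrate solution (2 mM NAD, 20 μM 3PG, 800 μM GAP) reacted 60 min before a koningic acid quench. NADH fluorescence (360/460) and diaphorase/resazurin-derived resorufin (544/590) were read.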

[2] = Table 6, read-out: huBPGM: phosphatase Enzyme EC50
[3] = Table 4, read-out: hBPGM Phosphatase EC50

Structure (SMILES)	EC50 [1, 2] [nM]	IC50 (hBPGM) [nM]	EC50 [1, 3] [nM]
Cc1nc(COC(=O)N2CCN(C)CC2)sc1-c1cccc(-c2cc(F)c3nn[nH]c3c2)n1 [Example 147]	490	550	–
Cc1nc(COc2ncccn2)sc1-c1cccc(-c2cc(F)c(O)c(F)c2F)c1 [Example 148]	250	1200	–
Cc1nc(COc2ncccn2)sc1-c1cccc(-c2ccc3nnc(O)n3c2)n1 [Example 151]	20000	1500	–
Cc1cnc(OCc2nc(C)c(-c3cccc(-c4cc(F)c5nn[nH]c5c4)n3)s2)nc1 [Example 152]	30	40	–
Cc1ccnc(OCc2nc(C)c(-c3cccc(-c4cc(F)c5nn[nH]c5c4)n3)s2)n1 [Example 153]	60	81	–
Cc1nc(COc2ncccn2)sc1-c1csc(-c2cc(F)c(O)c(F)c2F)c1 [Example 154]	49	110	–
Cc1nc(CNc2ncccn2)sc1-c1cccc(-c2cc(F)c3nn[nH]c3c2)n1 [Example 155]	40	44	–
COC(=O)NCc1nc(C)c(-c2csc(-c3ccc4[nH]nnc4c3F)n2)s1 [Example 156]	150	200	–
Cc1nc(COc2ncccn2)sc1-c1cccc(-c2ccc(C(=O)NS(=O)(=O)c3ccccc3)cc2)n1 [Example 157]	240	170	–
Cc1nc(COc2ncccn2)sc1-c1cccc(-c2ccc(C#N)c(O)c2)n1 [Example 158]	530	240	–
Cc1nc(COc2ncccn2)sc1-c1cccc(-c2ccc(O)c(C#N)c2)n1 [Example 159]	1800	290	–
Cc1nc(COCC(=O)N(C)C)sc1-c1csc(-c2cc(F)c(O)c(F)c2F)n1 [Example 160]	520	460	–
Cc1nc(COCC(=O)N(C)C)sc1-c1cccc(-c2cc(F)c3nn[nH]c3c2)n1 [Example 163]	260	170	–
Cc1nc(CNC(=O)c2cccnn2)sc1-c1cccc(-c2cc(F)c(O)c(F)c2F)n1 [Example 164]	550	680	–
Cc1nc(CNc2ncccn2)sc1-c1csc(-c2cc(F)c(O)c(F)c2F)n1 [Example 165]	110	92	–
COC(=O)NCc1nc(C)c(-c2csc(-c3ccc4[nH]nnc4c3F)n2)s1 [Example 166]	170	110	–
Cc1nc(COC(=O)N(C)C)sc1-c1cccc(-c2cc(F)c3nn[nH]c3c2)n1 [Example 167]	75	130	–
Cc1nc(CNc2ncccn2)sc1-c1cccc(-c2cc(F)c(O)c(F)c2F)n1 [Example 168]	130	220	–
Cc1nc(COC(=O)N(C)C)sc1-c1cccc(-c2cc(F)c(O)c(F)c2F)n1 [Example 169]	330	560	–
Cc1nc(COCC(=O)N(C)C)sc1-c1cccc(-c2cc(F)c(O)c(F)c2F)n1 [Example 170]	880	1100	–
COC(=O)NCc1nc(C)c(-c2cccc(-c3cc(F)c(O)c(F)c3F)n2)s1 [Example 171]	1900	810	–
Cc1nc(COc2ncccn2)sc1-c1cccc(-c2cc(F)c(O)c(F)c2F)n1 [Example 172]	240	280	–
COC(=O)NCc1nc(C)c(-c2csc(-c3ccc(O)c(C#N)c3F)n2)s1 [Example 173]	> 25000	1500	–
Cc1nc(CNc2ncccn2)sc1-c1csc(-c2cc(F)c3[nH]nnc3c2)n1 [Example 175]	30	79	–

Structure (SMILES)	EC50 [1, 2] [nM]	IC50 (hBPGM) [nM]	EC50 [1, 3] [nM]
Cc1nc(COc2ccccn2)sc1-c1csc(-c2cc3nn[nH]c3c(F)c2F)n1 [Example 176]	20	3400	–
Cc1nc(COc2ncccn2)sc1-c1cccc(-c2cc(F)c3[nH]nnc3c2)c1 [Example 177]	250	440	–
COC(=O)NCc1nc(C)c(-c2csc(-c3cc(F)c(O)cc3F)n2)s1 [Example 178]	1700	1700	–
Cc1nc(CNC(=O)C(C)(C)C)sc1-c1csc(-c2cc3nn[nH]c3cc2F)n1 [Example 181]	790	300	–
Cc1nc(CNC(=O)c2cccnn2)sc1-c1csc(-c2cc(F)c(O)c(F)c2F)n1 [Example 186]	350	240	–
COC(=O)NCc1nc(C)c(-c2csc(-c3cc(F)c(O)c(F)c3F)n2)s1 [Example 187]	480	300	–
Cc1nc(CNC(=O)c2cccnn2)sc1-c1csc(-c2cc(F)c(O)c(F)c2F)n1 [Example 188]	140	84	–
COC(=O)NCc1nc(C)c(-c2csc(-c3cc(O)c(C#N)cc3F)c2)s1 [Example 189]	310	980	–
COC(=O)NCc1nc(C)c(-c2csc(-c3ccc(O)c(F)c3F)n2)s1 [Example 190]	3300	4200	–
COC(=O)NCc1nc(C)c(-c2csc(-c3cc(F)c(O)c(F)c3)n2)s1 [Example 191]	1600	1100	–
Cc1nc(COc2ccccn2)sc1-c1csc(-c2cc(F)c(O)c(F)c2)n1 [Example 192]	490	1000	–
Cc1nc(CNC(=O)c2cccnn2)sc1-c1csc(-c2cc(F)c(O)c(F)c2)c1 [Example 194]	370	820	–
Cc1nc(CNC(=O)C(C)(C)C)sc1-c1csc(-c2cc(F)c(O)c(F)c2)n1 [Example 196]	4900	1600	–
Cc1nc(CNC(=O)C(C)(C)C)sc1-c1csc(-c2cc(F)c(O)c(F)c2)c1 [Example 197]	400	3100	–
Cc1nc(CNC(=O)c2cccnn2)sc1-c1csc(-c2cc(F)c(O)c(F)c2)n1 [Example 201]	180	410	–
COC(=O)NCc1nc(C)c(-c2csc(-c3ccc(O)c(F)c3)n2)s1 [Example 203]	3600	6100	–
COC(=O)NCc1nc(C)c(-c2csc(-c3ccc(-c4nnn[nH]4)cc3)n2)s1 [Example 205]	440	340	–
COC(=O)NCc1nc(C)c(-c2csc(-c3ccc(C(=O)NS(C)(=O)=O)c(O)c3)n2)s1 [Example 206]	1200	1400	–
COC(=O)NCc1nc(C)c(-c2csc(-c3ccc(C(=O)Nc4nnn[nH]4)cc3)n2)s1 [Example 207]	8200	6500	–
COC(=O)NCc1nc(C)c(-c2csc(-c3ccc(C(=O)NS(C)(=O)=O)cc3)n2)s1 [Example 208]	16000	3100	–
COC(=O)NCc1nc(C)c(-c2csc(-c3ccc(-c4nnn[nH]4)c(O)c3)n2)s1 [Example 213]	60	160	–
COC(=O)NCc1nc(C)c(-c2csc(-c3cc(F)c4[nH]nnc4c3)n2)s1 [Example 214]	96	180	–
Cc1cnc(OCc2nc(C)c(-c3cccc(-c4cc(F)c5nn[nH]c5c4F)n3)s2)nc1 [compound 8]	40	17	40
Cc1nc(COc2ncccn2)sc1-c1csc(-c2cc(F)c(O)c(F)c2F)n1 [compound 10]	310	130	310
